Measurements: patent US20250281488A1, “VCP INHIBITORS AND USES THEREOF FOR TREATMENT” (The Francis Crick Institute Limited, priority 2021, published 2025)
Entries after “also recorded” stand apart in the source; their conditions may differ. Where two headings read alike, the source gives them in different places.

Columns and labels:
[1] = biological target: VCP ATPase (Homo sapiens, UniProt P55072); conditions: read-out: Potency of inhibition: IC50 on ATPase in vitro; cited from earlier work
[2] = test system: control motor neurons; test: RBP localisation by immunofluorescence in control iPSC-derived motor neurons; format: cell-based, human; conditions: vs untreated
Description: (§1) Cell culture and motor neuron differentiation. IPSCs were maintained with Essential 8 Medium media (Life Technologies) on Geltrex (Life Technologies), and passaged using EDTA (Life Technologies, 0.5 mM). IPSC cultures were kept at 37° C. and 5% carbon dioxide. IPSCs underwent differentiation into spinal cord motor neurons as described in Hall et al, 2017 [12].
(§2) IPSC were plated to 100% confluency and then differentiated to the neuroepithelium in medium consisting of DMEM/F12 Glutamax, Neurobasal, L-Glutamine, N2 supplement, nonessential amino acids, B27 supplement, β-mercaptoethanol (all from Life Technologies) and insulin (Sigma). The cells underwent a sequential treatment with small molecules, with day 0-7: 1 μM Dorsomorphin (Millipore), 2 μM SB431542 (Tocris Bioscience), and 3.3 μM CHIR99021 (Miltenyi Biotec), day 7-14: 0.5 μM retinoic acid (Sigma) and 1 μM Purmorphamine (Sigma), day 14-18: 0.1 μM Purmorphamine. Following 18 days of neural conversion and patterning, neural precursors were terminally differentiated in 0.1 μM Compound E (Enzo Life Sciences).
(§3) […] neuroepithelial layer was enzymatically dissociated using dispase (GIBCO, 1 mg ml−1). The neural precursors were dissociated with Accutase (Life Technologies) for final plating onto a 96 well plate (Falcon) coated with polyethylenimine (PEI) (2.2 mg/ml in 0.1M of sodium borate (Sigma) and Geltrex. Following 6 days of terminal differentiation, cells were fixed in 4% paraformaldehyde for immunolabeling.
(§4) Inhibitor treatment. Motor neuron cultures were treated with 1 μM of ML240 (Sigma; SML1071; CAS:1346527-98-7) for 2 hours, 5 μM of DBeQ for 3 hours or 1 μM of CB-5083 for 3 hours.
(§5) Immunofluorescence staining. Cells were fixed in 4% paraformaldehyde in PBS for 15 minutes at room temperature (RT). For permeabilization and non-specific antibody blocking, 0.3% Triton-X containing 5% bovine serum albumin (BSA) (Sigma) in PBS was added for 60 minutes. Primary antibodies were made up in 5% BSA and then applied overnight at 4° C. Primary antibodies used were SMI-32 (BioLegend; 801701; mouse; 1:1000), ChAT (Millipore; AB144P; goat; 1:100), βIII-tubulin (abcam; ab41489; chicken; 1:1000), TDP-43 (ProteinTech; 12892-1-AP; rabbit; 1:400), SFPQ (abcam; ab11825; mouse; 1:400), FUS (Santa Cruz; sc-47711; mouse; 1:200), hnRNPA1 (Cell Signaling; 8443S; rabbit; 1:500), hnRNPK (Santa Cruz; sc-28380; mouse; 1:500). A species-specific Alexa Fluor-conjugated secondary antibody (Life Technologies) at 1:1000 dilution in 5% BSA was added for 90 minutes at RT in the dark. Cells were washed once in PBS containing DAPI, 4′,6-diamidino-2-phenylindole nuclear stain (1:1000) for 10 minutes.
(§6) Image acquisition and analysis. Images were acquired using the Opera Phenix High-Content Screening System (Perkin Elmer). Images were acquired with a 40× objective as confocal z-stacks with a z-step of 1 μm. Stacks were processed to obtain a maximum intensity projection. A minimum of 12 fields of view were taken for each well. To calculate the nuclear:cytoplasmic ratio of RNA-binding proteins (RBPs) in single cells, images were analysed using the Columbus Image Analysis System (Perkin Elmer). A DAPI mask defined the nucleus, and based on nuclear properties a trained machine learning feature selected neurons in an automated fashion. For each individual cell an average nuclear intensity of the RBP of interest was measured. For the cytoplasmic measurement, a 1.5 μm cytoplasmic region was defined around the nucleus within a cytoplasmic mask and an average intensity measured. […] A ratio of the nuclear:cytoplasmic average intensity measurements was calculated per cell. An average of each field was calculated and then averaged across the well.
(§7) For the nuclear:neurite ratio, we implemented a semi-automated image analysis pipeline combining Ilastik, Cellprofiler and ImageJ.

[3] = test system: Ub-G76V; conditions: read-out: Potency of inhibition: EC50 on Ub-G76V in cell culture; cited from earlier work
[4] = test system: VCP mutant motor neurons; test: RBP localisation by immunofluorescence in VCP mutant iPSC-derived motor neurons; format: cell-based, human
Description: as §1, §2, §3, §4, §5, §6, §7

[5] = test system: control and VCP mutant motor neurons; test: Western blot of TDP-43, FUS and SFPQ protein levels; format: cell-based, human; conditions: 1 μM ML240, 2 hours; whole cells
Description: Western blot analysis. Protein levels of TDP-43, FUS and SFPQ were assessed in whole cells in control and VCP mutant motor neurons. Cells were subjected to untreated conditions or treatment of 1 μM of ML240 for 2 hours prior to protein extraction. The cells were lysed and proteins were extracted with RIPA disruption. Total protein concentration was quantified using BCA protein assay (Sigma). Equal amounts of protein samples were then loaded onto a gel and separated by SDS PAGE and transferred onto a nitrocellulose membrane. Samples were then blocked with PBS, 0.1% Tween, 5% dry milk powder at RT for one hour followed by primary antibody incubation overnight at 4° C. The following antibodies were diluted in PBS 5% BSA; TDP-43 (ProteinTech; 12892-1-AP; rabbit; 1:1000), SFPQ (Abcam; 11825; mouse; 1:250), FUS (Santa Cruz; sc-47711; mouse; 1:500), GAPDH (GeneTex; GT239; mouse; 1:10000). For detection, membranes were incubated with species-specific near infra-red fluorescent antibodies (IRDye, Licor) at RT for one hour and imaged using an Odyssey Fc Imaging System (Licor).

[6] = test system: TARDBP-mutant (G298S) motor neurons; conditions: 1 μM CB-5083, 3 hours, vs untreated
Description: Immunofluorescence staining. Cells were fixed in 4% paraformaldehyde in PBS for 15 minutes at room temperature (RT). For permeabilization and non-specific antibody blocking, 0.3% Triton-X containing 5% bovine serum albumin (BSA) (Sigma) in PBS was added for 60 minutes. Primary antibodies were made up in 5% BSA and then applied overnight at 4° C. […]
Image acquisition and analysis. […] To calculate the nuclear:cytoplasmic ratio of RNA-binding proteins (RBPs) in single cells, images were analysed using the Columbus Image Analysis System (Perkin Elmer). […] For each individual cell an average nuclear intensity of the RBP of interest was measured. For the cytoplasmic measurement, a 1.5 μm cytoplasmic region was defined around the nucleus within a cytoplasmic mask and an average intensity measured. […] A ratio of the nuclear:cytoplasmic average intensity measurements was calculated per cell. An average of each field was calculated and then averaged across the well.

[7] = 1 μM ML240, 2 hours, normalised to control untreated

Sequence of VCP ATPase (P55072 whole entry): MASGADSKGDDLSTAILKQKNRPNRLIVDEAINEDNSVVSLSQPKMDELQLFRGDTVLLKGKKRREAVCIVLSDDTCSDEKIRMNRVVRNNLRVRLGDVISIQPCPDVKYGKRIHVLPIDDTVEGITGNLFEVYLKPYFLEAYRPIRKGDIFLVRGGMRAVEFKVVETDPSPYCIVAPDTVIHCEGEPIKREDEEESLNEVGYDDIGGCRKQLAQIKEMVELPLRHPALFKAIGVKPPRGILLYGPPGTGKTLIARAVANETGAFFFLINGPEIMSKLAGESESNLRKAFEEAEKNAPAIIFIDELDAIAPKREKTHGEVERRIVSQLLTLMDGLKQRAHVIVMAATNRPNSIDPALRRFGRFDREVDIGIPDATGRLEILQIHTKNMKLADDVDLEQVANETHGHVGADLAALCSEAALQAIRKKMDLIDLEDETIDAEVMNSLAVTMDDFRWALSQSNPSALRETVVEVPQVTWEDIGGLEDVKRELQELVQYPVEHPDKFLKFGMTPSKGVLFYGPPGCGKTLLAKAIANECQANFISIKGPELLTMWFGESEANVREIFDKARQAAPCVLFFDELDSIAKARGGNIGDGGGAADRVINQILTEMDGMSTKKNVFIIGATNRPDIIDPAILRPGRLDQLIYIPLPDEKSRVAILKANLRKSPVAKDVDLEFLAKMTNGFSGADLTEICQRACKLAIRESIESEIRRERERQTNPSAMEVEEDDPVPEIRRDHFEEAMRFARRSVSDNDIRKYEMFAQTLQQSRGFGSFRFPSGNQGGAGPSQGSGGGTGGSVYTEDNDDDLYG

c1ccc(CNc2nc(NCc3ccccc3)c3ccccc3n2)cc1 [DBeQ, N2,N4-dibenzylquinazo-line-2,4-diamine]
IC50 [1]: 1.5 µM
TDP-43 nuclear:cytoplasmic ratio (N/C) ([2]; 5 μM DBeQ, 3 hours): increased
TDP-43 nuclear:cytoplasmic ratio (N/C) ([2]; 5 μM DBeQ, 3 hours, listed as DBEQ): increase
EC50 [3]: 2.6 µM
TDP-43 nuclear:cytoplasmic ratio (N/C) ([4]; 5 μM DBeQ, 3 hours, vs untreated): able to reverse
TDP-43 nuclear:cytoplasmic ratio (N/C) ([4]; 5 μM DBeQ, 3 hours, vs untreated, listed as DBEQ): increase

3,4-methylenedioxy-6-nitrostyrene [Syk inhibitor III]
IC50 [1]: 1.7 µM
EC50 [3]: 1.6 µM

Cc1cc(OCc2nnc(SC3CCCC3)n2-c2cccnc2)ccc1-c1ccc(S(C)(=O)=O)cc1 [NMS-873]
EC50 [3]: 0.4 to 0.7 µM

COc1cccc2c(NCc3ccccc3)nc(-n3c(N)nc4ccccc43)nc12 [ML240, 2-(2-Amino-1H-benzimidazole-1-yl)-8-methoxy-N-(phenylmethyl)-4-quinazolinamine]
FUS nuclear:cytoplasmic ratio ([2]; 1 μM ML240, 2 hours): no difference
FUS nuclear:neurite ratio ([2]; 1 μM ML240, 2 hours): small increase
SFPQ nuclear:cytoplasmic ratio ([2]; 1 μM ML240, 2 hours): no difference
SFPQ nuclear:neurite ratio ([2]; 1 μM ML240, 2 hours): no difference
TDP-43 nuclear:cytoplasmic ratio (N/C) ([2]; 1 μM ML240, 2 hours): increase
TDP-43 nuclear:neurite ratio (Nu/Ne) ([2]; 1 μM ML240, 2 hours): no such increase was observed; also recorded: no difference
hnRNPA1 nuclear:cytoplasmic ratio ([2]; 1 μM ML240, 2 hours): no difference
hnRNPK nuclear:cytoplasmic ratio ([2]; 1 μM ML240, 2 hours): no difference
FUS overall protein level (Western blot, normalised to GAPDH) [5]: did not change; also recorded: does not change
SFPQ overall protein level (Western blot, normalised to GAPDH) [5]: did not change; also recorded: does not change
TDP-43 overall protein level (Western blot, normalised to GAPDH) [5]: did not change; also recorded: does not change
hnRNPA1 nuclear:cytoplasmic ratio ([4]; 1 μM ML240, 2 hours): no change
hnRNPK nuclear:cytoplasmic ratio ([4]; 1 μM ML240, 2 hours): no change
FUS nuclear:cytoplasmic ratio [4, 7]: robustly reversed the mislocalization; also recorded: increase
FUS nuclear:neurite ratio [4, 7]: robustly reversed the mislocalization; also recorded: increase of the nuclear:neurite ratio to control values
SFPQ nuclear:neurite ratio [4, 7]: significantly reversed; also recorded: increase
TDP-43 nuclear:cytoplasmic ratio (N/C) [4, 7]: robustly reversed the mislocalization; also recorded: increased above control values
TDP-43 nuclear:neurite ratio (Nu/Ne) [4, 7]: robustly reversed the mislocalization; also recorded: increased

Cc1cc2c(C(N)=O)cccc2n1-c1nc2c(c(NCc3ccccc3)n1)COCC2 [CB-5083, 1-[7,8-dihydro-4-[(phenylmethyl)amino]-5H-pyrano[4,3-d]pyrimidin-2-yl]-2-methyl-1H-indole-4-carboxamide]
TDP-43 nuclear:cytoplasmic ratio (N/C) ([2]; 1 μM CB-5083, 3 hours): increase
TDP-43 nuclear:cytoplasmic ratio (N/C) [6]: increased
TDP-43 nuclear:cytoplasmic ratio (N/C) ([6]; listed as CB5083): increase
TDP-43 nuclear:cytoplasmic ratio (N/C) ([4]; 1 μM CB-5083, 3 hours, vs untreated): able to reverse
TDP-43 nuclear:cytoplasmic ratio (N/C) ([4]; 1 μM CB-5083, 3 hours, vs untreated, listed as CB5083): increase
